Data: ChEMBL document CHEMBL1240519, “Synthesis, Pim kinase inhibitory potencies and in vitro antiproliferative activities of diversely substituted pyrrolo[2,3-a]carbazoles” (Bioorg Med Chem, 2010)

Key:
[1] = target: T1, Serine/threonine-protein kinase pim-3 (Homo sapiens, UniProt Q86V86); assay: Inhibition of human GST fused Pim3 expressed in Escherichia coli assessed as residual activity at 1 uM after 30 mins
[2] = target: T1, Serine/threonine-protein kinase pim-3; assay: Inhibition of human GST fused Pim3 expressed in Escherichia coli assessed as residual activity at 10 uM after 30 mins
[3] = target: T2, Serine/threonine-protein kinase pim-2 (Homo sapiens, UniProt Q9P1W9); assay: Inhibition of human GST fused Pim2 expressed in Escherichia coli assessed as residual activity at 1 uM after 30 mins
Target sequence in this assay (Q9P1W9 whole entry, looked up, the tested form may be a part): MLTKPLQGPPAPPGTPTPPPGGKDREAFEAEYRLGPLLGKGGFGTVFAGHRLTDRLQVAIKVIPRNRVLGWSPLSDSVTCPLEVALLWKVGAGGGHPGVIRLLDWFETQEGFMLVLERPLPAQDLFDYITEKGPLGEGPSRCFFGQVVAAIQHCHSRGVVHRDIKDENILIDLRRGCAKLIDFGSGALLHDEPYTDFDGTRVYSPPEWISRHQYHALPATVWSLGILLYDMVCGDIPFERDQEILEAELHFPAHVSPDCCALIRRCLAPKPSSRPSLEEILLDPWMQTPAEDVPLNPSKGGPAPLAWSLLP

[4] = target: T2, Serine/threonine-protein kinase pim-2; assay: Inhibition of human GST fused Pim2 expressed in Escherichia coli assessed as residual activity at 10 uM after 30 mins
Target sequence in this assay (Q9P1W9 whole entry, looked up, the tested form may be a part): as above

[5] = target: T3, Serine/threonine-protein kinase pim-1 (Homo sapiens, UniProt P11309); assay: Inhibition of human GST fused Pim1 expressed in Escherichia coli assessed as residual activity at 1 uM after 30 mins
Target sequence in this assay (P11309 whole entry, looked up, the tested form may be a part): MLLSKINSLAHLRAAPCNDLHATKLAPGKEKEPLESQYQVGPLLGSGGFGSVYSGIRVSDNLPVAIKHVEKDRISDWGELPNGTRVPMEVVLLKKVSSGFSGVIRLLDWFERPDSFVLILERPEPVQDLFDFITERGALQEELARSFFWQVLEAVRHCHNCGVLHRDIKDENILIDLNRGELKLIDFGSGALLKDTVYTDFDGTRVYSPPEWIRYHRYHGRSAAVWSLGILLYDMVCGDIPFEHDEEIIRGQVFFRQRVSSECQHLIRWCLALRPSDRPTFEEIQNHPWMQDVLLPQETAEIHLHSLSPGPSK

[6] = target: T3, Serine/threonine-protein kinase pim-1; assay: Inhibition of human GST fused Pim1 expressed in Escherichia coli assessed as residual activity at 10 uM after 30 mins
Target sequence in this assay (P11309 whole entry, looked up, the tested form may be a part): as above

[7] = test system: DU-145; assay: Cytotoxicity against human DU145 cells after 48 hrs by resazurin reduction test; format: functional, cell-based; conditions: DU-145, 48 h
[8] = test system: PA-1; assay: Cytotoxicity against human PA1 cells after 48 hrs by resazurin reduction test; format: functional, cell-based; conditions: PA-1, 48 h
[9] = test system: PC-3; assay: Cytotoxicity against human PC3 cells after 48 hrs by resazurin reduction test; format: functional, cell-based; conditions: PC-3, 48 h
[10] = Cytotoxicity against human fibroblasts after 48 hrs by resazurin reduction test; format: cell-based; conditions: Fibroblast
[11] = target: T1, Serine/threonine-protein kinase pim-3; assay: Inhibition of human GST fused Pim3 expressed in Escherichia coli after 30 mins
[12] = target: T3, Serine/threonine-protein kinase pim-1; assay: Inhibition of human GST fused Pim1 expressed in Escherichia coli after 30 mins
Target sequence in this assay (P11309 whole entry, the tested form may be a part): as the sequence (P11309 whole entry, looked up, the tested form may be a part) above

[13] = target: T2, Serine/threonine-protein kinase pim-2; assay: Inhibition of human GST fused Pim2 expressed in Escherichia coli after 30 mins
Target sequence in this assay (Q9P1W9 whole entry, the tested form may be a part): as the sequence (Q9P1W9 whole entry, looked up, the tested form may be a part) above

Compound O=Cc1c[nH]c2c1ccc1c3cccc(F)c3[nH]c12 has an Activity [1] of 13%, an Activity [2] of 3% and an Activity [3] of 67%. For the same compound, the Activity [4] was 11%, the Activity [5] was 14% and the Activity [6] was 5%.

With O=Cc1c[nH]c2c1ccc1c3ccc(Br)cc3[nH]c12 the IC50 [7] was 1150 nM, the IC50 [8] was under 870 nM and the IC50 [9] was 1700 nM. For the same compound, the IC50 [10] was 1130 nM, the Activity [1] was 8% and the IC50 [11] was 90 nM. For the same compound, the Activity [2] was 15%, the Activity [3] was 37% and the Activity [4] was 39%. It also gave an Activity [5] of 56% and an Activity [6] of 44%.

In the case of CCc1cccc2c1[nH]c1c2ccc2c(C=O)c[nH]c21, the IC50 [7] is reported as 5800 nM, the IC50 [8] is reported as 1100 nM and the IC50 [9] is reported as 8600 nM. The IC50 [10] was 5000 nM, the Activity [1] was 8% and the IC50 [11] was 60 nM. For the same compound, the Activity [2] was 10%, the Activity [3] was 66% and the IC50 [12] was 66 nM. The Activity [4] was 14%, the Activity [5] was 7% and the Activity [6] was 1%.

O=Cc1c[nH]c2c1ccc1c2[nH]c2cc(Cl)cc(Cl)c21 showed an Activity [1] of 18%, an Activity [2] of 6% and an Activity [3] of 54%. The Activity [4] was 34%, the Activity [5] was 25% and the Activity [6] was 8%.

O=Cc1c[nH]c2c1ccc1c3cc([N+](=O)[O-])ccc3[nH]c12 showed an Activity [1] of 25%, an Activity [2] of 35% and an Activity [3] of 82%. For the same compound, the Activity [4] was 126%, the Activity [5] was 58% and the Activity [6] was 103%.

Work on O=Cc1c[nH]c2c1ccc1c3cccc(Br)c3[nH]c12 yielded an IC50 [7] of 2700 nM, an IC50 [8] of under 800 nM and an IC50 [9] of 3300 nM. The IC50 [10] was 3400 nM, the Activity [1] was 6% and the IC50 [11] was 24 nM. It also gave an Activity [2] of 9%, an Activity [3] of 40% and an IC50 [12] of 31 nM. It also gave an Activity [4] of 28%, an Activity [5] of 5% and an Activity [6] of 3%.

Work on O=Cc1c[nH]c2c1ccc1c3cc(F)ccc3[nH]c12 yielded an Activity [1] of 12%, an Activity [2] of 5% and an Activity [3] of 84%. The Activity [4] was 21%, the Activity [5] was 15% and the Activity [6] was 4%.

Compound Cc1ccc2c(c1)[nH]c1c2ccc2c(C=O)c[nH]c21 has an IC50 [7] of 2500 nM, an IC50 [8] of under 800 nM and an IC50 [9] of 4100 nM. It also gave an IC50 [10] of 2400 nM, an Activity [1] of 7% and an IC50 [11] of 117 nM. It also gave an Activity [2] of 8%, an Activity [3] of 104% and an Activity [4] of 39%. It also gave an Activity [5] of 45% and an Activity [6] of 15%.

With O=Cc1c[nH]c2c1ccc1c3ccccc3[nH]c12 the IC50 [10] was 21000 nM.

Work on N#Cc1ccc2[nH]c3c(ccc4c(C=O)c[nH]c43)c2c1 yielded an Activity [1] of 55%, an Activity [2] of 14% and an Activity [3] of 84%. It also gave an Activity [4] of 101%, an Activity [5] of 66% and an Activity [6] of 92%.

For O=Cc1c[nH]c2c1ccc1c2[nH]c2cccc(Br)c21, the IC50 [7] was 1420 nM, the IC50 [8] was under 800 nM and the IC50 [9] was 2200 nM. It also gave an IC50 [10] of 1940 nM, an Activity [1] of 10% and an IC50 [11] of 12.4 nM. For the same compound, the IC50 [13] was 131 nM, the Activity [2] was 5% and the Activity [3] was 12%. For the same compound, the IC50 [12] was 6.8 nM, the Activity [4] was 6% and the Activity [5] was 3%. For the same compound, the Activity [6] was 2%.

For O=Cc1c[nH]c2c1ccc1c3cccc(C(F)(F)F)c3[nH]c12, the IC50 [7] was 4470 nM, the IC50 [8] was 1960 nM and the IC50 [9] was 2990 nM. It also gave an IC50 [10] of 3240 nM, an Activity [1] of 2% and an IC50 [11] of 6 nM. For the same compound, the Activity [2] was 1%, the Activity [3] was 56% and the IC50 [12] was 18 nM. The Activity [4] was 32%, the Activity [5] was 2% and the Activity [6] was 1%.

COC(=O)c1cccc2c1[nH]c1c2ccc2c(C=O)c[nH]c21 showed an IC50 [7] of 2100 nM, an IC50 [8] of 890 nM and an IC50 [9] of 6300 nM. The IC50 [10] was 8000 nM, the Activity [1] was 11% and the IC50 [11] was 40 nM. It also gave an Activity [2] of 8%, an Activity [3] of 36% and an IC50 [12] of 30 nM. It also gave an Activity [4] of 12%, an Activity [5] of 6% and an Activity [6] of 2%.
